From ChEMBL document CHEMBL1201862, “PubChem BioAssay data set” (2004)
Activity calls are given as the source filed them.

How the values were obtained:
BJ [1] = assay: BJ-TERT fibroblast viability loss – cell-based, RAS-independent, luminescence, dose response (AID 1933); assay type: functional, Homo sapiens; details: Homo sapiens, BJ
BJ [2] = assay: cells; assay type: functional, cell-based, Homo sapiens; details: Homo sapiens, BJ
BJ [3] = assay: BJ-TERT-LT-ST fibroblast viability loss – cell-based, RAS-independent, luminescence, dose response (AID 1935); assay type: functional, Homo sapiens; details: Homo sapiens, BJ;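 note: BJ fibroblasts immortalized with TERT plus LT and ST oncogenes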
[4] = DRD fibroblast viability loss – cell-based, non-viral oncogenic, luminescence, dose response (AID 1934); assay type: functional; details: Homo sapiens
[5] = biological target: T1, Corticotropin-releasing factor receptor 2/Corticotropin-releasing factor-binding protein (Homo sapiens, UniProt P24387+Q13324); assay: Dose Response confirmation of uHTS hits for small molecule antagonists of the CRF-binding protein and CRF-R2 receptor complex.; assay type: functional; details: read-out: IC50_Mean
T1 sequence (Q13324 whole entry): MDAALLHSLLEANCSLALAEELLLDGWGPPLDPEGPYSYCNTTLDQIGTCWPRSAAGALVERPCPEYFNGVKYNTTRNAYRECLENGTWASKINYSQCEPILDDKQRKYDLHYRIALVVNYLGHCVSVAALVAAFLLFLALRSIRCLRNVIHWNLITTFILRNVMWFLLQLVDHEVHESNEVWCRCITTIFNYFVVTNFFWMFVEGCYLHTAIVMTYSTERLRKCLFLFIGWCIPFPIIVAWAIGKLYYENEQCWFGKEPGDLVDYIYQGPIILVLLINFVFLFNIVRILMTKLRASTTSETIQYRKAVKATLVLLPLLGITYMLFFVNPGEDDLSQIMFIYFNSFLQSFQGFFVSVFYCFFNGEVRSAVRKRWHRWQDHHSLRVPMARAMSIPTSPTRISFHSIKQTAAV
T1 sequence (P24387 whole entry): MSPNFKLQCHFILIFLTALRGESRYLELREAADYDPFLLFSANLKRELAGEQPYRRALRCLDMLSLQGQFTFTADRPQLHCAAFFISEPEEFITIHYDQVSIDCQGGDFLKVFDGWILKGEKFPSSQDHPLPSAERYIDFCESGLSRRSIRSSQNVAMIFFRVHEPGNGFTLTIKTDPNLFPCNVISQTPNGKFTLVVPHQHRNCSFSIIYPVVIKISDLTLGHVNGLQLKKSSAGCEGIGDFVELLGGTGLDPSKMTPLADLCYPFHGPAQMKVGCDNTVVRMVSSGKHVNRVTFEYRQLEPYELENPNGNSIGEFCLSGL

[6] = biological target: T1, Corticotropin-releasing factor receptor 2/Corticotropin-releasing factor-binding protein; assay: activators of CRF receptor 2 with binding protein – uHTS hits, confirmation (AID 602473); assay type: functional; details: read-out: EC50_Mean
[7] = blockers of CRF-binding protein–CRF-R2 complex – cell-based, uHTS hits, 384-well, dose response (AID 651639); assay type: functional, Homo sapiens; details: read-out: IC50_Mean
Caspase-3 = biological target: T2, Caspase-3 (Homo sapiens, UniProt P42574); assay type: functional;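 note: Dose-response selectivity test against caspase-3 for candidate inhibitors of sentrin-specific proteases (SENPs)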
T2 sequence (P42574 whole entry): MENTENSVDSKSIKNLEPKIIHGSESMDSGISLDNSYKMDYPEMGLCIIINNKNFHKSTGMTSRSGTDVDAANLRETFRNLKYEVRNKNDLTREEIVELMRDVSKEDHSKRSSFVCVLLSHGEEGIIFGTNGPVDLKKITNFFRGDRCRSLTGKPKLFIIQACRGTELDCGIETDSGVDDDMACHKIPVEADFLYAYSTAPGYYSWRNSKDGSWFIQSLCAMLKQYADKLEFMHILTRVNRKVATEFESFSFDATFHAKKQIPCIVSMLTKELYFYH

[8] = biological target: T3, Sentrin-specific protease 7 (Homo sapiens, UniProt Q9BQF6); assay type: functional;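 note: Luminescence-based dose-response confirmation of ultra-high-throughput screening hits, measuring inhibition of SENP7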
T3 sequence (Q9BQF6 whole entry): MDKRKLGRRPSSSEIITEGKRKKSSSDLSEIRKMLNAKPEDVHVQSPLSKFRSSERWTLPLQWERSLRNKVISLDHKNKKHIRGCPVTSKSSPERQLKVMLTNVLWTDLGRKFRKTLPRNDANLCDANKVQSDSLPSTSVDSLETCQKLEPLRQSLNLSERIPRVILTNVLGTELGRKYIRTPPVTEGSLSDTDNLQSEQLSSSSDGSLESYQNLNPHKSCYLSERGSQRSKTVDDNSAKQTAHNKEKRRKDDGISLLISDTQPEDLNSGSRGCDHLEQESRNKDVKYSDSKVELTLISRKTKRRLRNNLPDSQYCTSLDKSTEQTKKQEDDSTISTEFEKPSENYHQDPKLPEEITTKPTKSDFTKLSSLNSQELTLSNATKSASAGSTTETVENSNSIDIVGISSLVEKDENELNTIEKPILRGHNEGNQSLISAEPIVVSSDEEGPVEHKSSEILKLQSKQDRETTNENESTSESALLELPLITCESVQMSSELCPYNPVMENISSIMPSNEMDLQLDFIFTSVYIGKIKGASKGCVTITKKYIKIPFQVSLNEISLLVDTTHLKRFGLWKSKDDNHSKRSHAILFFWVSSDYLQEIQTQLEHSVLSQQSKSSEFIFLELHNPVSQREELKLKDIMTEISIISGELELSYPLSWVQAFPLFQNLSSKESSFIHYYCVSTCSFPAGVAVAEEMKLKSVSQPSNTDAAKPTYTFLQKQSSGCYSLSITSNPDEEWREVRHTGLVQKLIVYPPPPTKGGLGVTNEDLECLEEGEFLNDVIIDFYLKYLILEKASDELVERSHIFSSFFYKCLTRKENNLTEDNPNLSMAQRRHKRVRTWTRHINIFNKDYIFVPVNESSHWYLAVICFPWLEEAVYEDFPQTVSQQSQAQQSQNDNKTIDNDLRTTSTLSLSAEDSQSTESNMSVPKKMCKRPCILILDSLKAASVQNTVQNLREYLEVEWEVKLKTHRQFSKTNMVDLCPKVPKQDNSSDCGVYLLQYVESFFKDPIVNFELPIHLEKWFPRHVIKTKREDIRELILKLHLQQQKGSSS

[9] = biological target: T4, Sentrin-specific protease 6 (Homo sapiens, UniProt Q9GZR1); assay type: functional;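 note: Luminescence-based dose-response confirmatory assay of SENP6 inhibition, following up an ultra-high-throughput screen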
T4 sequence (Q9GZR1 whole entry): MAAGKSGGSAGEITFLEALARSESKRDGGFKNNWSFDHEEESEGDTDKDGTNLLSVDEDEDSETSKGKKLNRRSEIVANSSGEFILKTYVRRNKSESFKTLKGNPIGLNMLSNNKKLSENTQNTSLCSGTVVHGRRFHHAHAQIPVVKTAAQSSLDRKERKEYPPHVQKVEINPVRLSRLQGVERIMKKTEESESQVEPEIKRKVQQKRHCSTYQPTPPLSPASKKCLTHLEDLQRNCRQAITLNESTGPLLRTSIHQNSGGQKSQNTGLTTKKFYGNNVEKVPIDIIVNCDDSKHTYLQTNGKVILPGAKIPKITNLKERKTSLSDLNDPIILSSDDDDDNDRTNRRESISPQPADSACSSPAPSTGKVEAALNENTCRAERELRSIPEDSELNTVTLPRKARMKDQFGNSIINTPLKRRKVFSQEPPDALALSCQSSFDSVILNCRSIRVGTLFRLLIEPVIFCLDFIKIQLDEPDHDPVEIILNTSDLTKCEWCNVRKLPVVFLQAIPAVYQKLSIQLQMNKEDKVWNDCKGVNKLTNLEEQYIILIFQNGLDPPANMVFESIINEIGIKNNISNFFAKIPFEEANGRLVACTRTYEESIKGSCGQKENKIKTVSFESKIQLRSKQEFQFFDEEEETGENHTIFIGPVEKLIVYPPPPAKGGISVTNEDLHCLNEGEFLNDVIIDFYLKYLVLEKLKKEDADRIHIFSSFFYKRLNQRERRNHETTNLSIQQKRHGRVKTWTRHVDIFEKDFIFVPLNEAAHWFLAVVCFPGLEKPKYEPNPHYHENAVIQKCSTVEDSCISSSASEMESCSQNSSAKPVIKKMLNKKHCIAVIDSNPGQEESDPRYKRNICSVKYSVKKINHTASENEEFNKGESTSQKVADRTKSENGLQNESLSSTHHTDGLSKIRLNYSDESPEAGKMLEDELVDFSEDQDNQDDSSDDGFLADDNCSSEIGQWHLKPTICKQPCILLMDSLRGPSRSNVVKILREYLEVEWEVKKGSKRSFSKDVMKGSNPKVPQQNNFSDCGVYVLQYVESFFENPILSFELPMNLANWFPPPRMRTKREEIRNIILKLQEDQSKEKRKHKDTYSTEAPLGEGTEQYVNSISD

[10] = biological target: T5, Sentrin-specific protease 8 (Homo sapiens, UniProt Q96LD8); assay type: functional;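 note: luminescence read-out of SENP8 inhibition, dose-response confirmation following an ultra-high-throughput screen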
T5 sequence (Q96LD8 whole entry): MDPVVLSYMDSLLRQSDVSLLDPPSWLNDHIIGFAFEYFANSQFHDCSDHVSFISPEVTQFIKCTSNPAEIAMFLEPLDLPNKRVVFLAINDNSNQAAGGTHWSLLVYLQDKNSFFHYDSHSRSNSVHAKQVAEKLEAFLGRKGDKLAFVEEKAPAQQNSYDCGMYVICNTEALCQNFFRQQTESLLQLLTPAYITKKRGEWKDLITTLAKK

[11] = biological target: T6, Low molecular weight phosphotyrosine protein phosphatase (Homo sapiens, UniProt P24666); assay type: functional; details: read-out: IC50_Mean;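 note: Dose-response confirmation assay measuring inhibition of LMPTP enzyme activity by fluorescence intensity read-out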
T6 sequence (P24666 whole entry): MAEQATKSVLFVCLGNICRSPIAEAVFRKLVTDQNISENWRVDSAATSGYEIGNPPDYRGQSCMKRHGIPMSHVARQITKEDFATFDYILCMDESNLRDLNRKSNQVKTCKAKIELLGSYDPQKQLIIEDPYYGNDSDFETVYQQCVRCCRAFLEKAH

Protein Wnt-3a = Protein Wnt-3a (Mus musculus, UniProt P27467); assay: antagonism of Wnt3a pathway luciferase reporter – Wnt-LIGHT cells, luminescence, selectivity assay for Gli-SUFU antagonist project, dose response (AID 651570); assay type: functional; details: read-out: IC50_Mean;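 note: Wnt-LIGHT reporter cells stimulated with conditioned medium from Wnt3a-producing cells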
[12] = Trypanosoma cruzi growth suppression in host cells – NIH3T3 host cells, beta-gal luminescence, confirmation (AID 2044); assay type: functional, cell-based;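 note: intracellular parasites grown in NIH/3T3 mouse fibroblasts as host cells; luminescent beta-galactosidase reporter signal from transgenic T. cruzi replicating inside host cells; inhibitors lower the luminescence signal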
[13] = NIH3T3 cell viability loss – ATP luminescence, mouse fibroblasts, counter-screen, dose response (AID 2010); assay type: functional, cell-based;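 note: cells exposed to compound for about 90 hours before reading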
[14] = biological target: T7, Polyadenylate-binding protein 1 (Homo sapiens, UniProt P11940); assay: MLLE binding blockers, Cy5 peptide tracer – biochemical, fluorescence polarization, Cy5-PAM2 peptide, secondary, miRNA deadenylation inhibitor project, dose response (AID 602260); assay type: functional; details: read-out: IC50_Mean
[15] = biological target: T7, Polyadenylate-binding protein 1; assay: MLLE domain peptide-binding blockers, IC50 – biochemical, fluorescence polarization, FITC-PAM2 peptide, dose response (AID 602259); assay type: functional; details: read-out: IC50_Mean
[16] = HGIII-sPLA2 enzyme inhibition potency – biochemical, QFRET, IC50, dose response (AID 743457);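 note: green fluorescence rise as the enzyme cleaves BODIPY PC-A2 in liposomes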
Paired box protein Pax-8 = Paired box protein Pax-8 (Homo sapiens, UniProt Q06710); assay: PAX8 transcriptional activity inhibition in RMG-I – RMG-I cells, luciferase, cherry-pick, dose response (AID 687027); assay type: functional, cell-based;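 note: luciferase reporter driven by Pax8 target thyroperoxidase promoter measured by SteadyGlo luminescence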
[17] = OVCAR-3 cell viability loss – plate reader, dry powder samples, PAX8 inhibitor project, dose response (AID 743044); assay type: functional, cell-based
[18] = IGROV1 cell killing – plate reader, dry powder samples, PAX8 inhibitor project, dose response (AID 743043); assay type: functional, cell-based; details: IGROV-1
[19] = OVCAR8 cell viability loss – plate reader, dry powder samples, PAX8 project, dose response (AID 743197); assay type: functional, cell-based; details: OVCAR-8

T7 sequence (P11940 whole entry, the tested form may be a part): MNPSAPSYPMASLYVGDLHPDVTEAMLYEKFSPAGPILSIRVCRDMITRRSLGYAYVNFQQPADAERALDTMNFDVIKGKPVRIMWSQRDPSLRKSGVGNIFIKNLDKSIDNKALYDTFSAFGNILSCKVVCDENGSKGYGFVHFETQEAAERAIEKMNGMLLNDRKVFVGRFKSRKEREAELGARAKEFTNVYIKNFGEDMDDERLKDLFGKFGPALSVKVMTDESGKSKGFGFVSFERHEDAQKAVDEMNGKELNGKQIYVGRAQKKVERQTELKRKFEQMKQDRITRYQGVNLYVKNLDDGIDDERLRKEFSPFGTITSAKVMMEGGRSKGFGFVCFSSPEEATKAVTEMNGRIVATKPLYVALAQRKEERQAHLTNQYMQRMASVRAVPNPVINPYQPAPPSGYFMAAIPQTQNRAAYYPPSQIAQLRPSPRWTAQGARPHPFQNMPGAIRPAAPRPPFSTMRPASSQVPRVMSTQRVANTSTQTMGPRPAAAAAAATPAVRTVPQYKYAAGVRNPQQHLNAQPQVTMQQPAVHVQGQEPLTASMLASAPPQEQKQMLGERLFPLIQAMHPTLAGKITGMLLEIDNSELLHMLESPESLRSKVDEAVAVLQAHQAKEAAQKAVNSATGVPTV
Chain of Paired box protein Pax-8 (Q06710 whole entry): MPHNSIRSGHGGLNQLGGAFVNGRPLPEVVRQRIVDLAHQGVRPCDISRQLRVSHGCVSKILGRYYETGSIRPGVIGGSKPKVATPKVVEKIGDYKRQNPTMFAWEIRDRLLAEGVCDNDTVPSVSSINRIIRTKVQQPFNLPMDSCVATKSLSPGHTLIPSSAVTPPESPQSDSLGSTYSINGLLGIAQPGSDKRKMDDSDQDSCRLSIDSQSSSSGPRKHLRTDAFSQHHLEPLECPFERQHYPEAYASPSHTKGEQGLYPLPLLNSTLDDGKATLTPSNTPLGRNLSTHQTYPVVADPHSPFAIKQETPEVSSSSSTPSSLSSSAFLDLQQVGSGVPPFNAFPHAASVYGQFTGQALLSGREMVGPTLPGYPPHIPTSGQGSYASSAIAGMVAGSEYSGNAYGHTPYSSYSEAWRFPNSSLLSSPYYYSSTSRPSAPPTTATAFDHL
Chain of Protein Wnt-3a (P27467 whole entry): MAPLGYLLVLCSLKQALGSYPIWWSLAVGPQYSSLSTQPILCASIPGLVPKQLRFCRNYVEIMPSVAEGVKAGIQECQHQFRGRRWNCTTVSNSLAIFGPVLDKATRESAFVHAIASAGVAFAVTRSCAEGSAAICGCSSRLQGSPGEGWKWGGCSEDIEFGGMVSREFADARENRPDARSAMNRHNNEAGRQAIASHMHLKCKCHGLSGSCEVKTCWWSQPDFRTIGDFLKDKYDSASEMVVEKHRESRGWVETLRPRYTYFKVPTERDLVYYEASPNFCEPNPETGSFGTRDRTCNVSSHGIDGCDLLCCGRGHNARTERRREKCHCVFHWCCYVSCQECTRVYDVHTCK

SMILES: Oc1cc(C(F)(F)F)nc2ccc(OC(F)(F)F)cc12
- EC50 (BJ [1]): 38.8 µM (active)
- EC50 (BJ [2]): 41.4 µM (active)
- EC50 (BJ [3]): > 150 µM (not active)
- EC50 [4]: 38.4 µM (active)
- IC50 [5]: 4.24 µM (active)
- EC50 [6]: 5.39 µM (active)
- IC50 [7]: > 20 µM (inactive)

SMILES: COc1ccc(NC(=O)NC(C)c2ccc3c(c2)OCO3)c(OC)c1 (centres undefined)
- IC50 [5]: < 0.368 µM (active)
- EC50 [6]: > 53 µM (inactive)
- IC50 [7]: > 20 µM (inactive)

SMILES: CCOC(=O)/C=C(\C)N1N=C(c2ccccc2)CC1c1ccccc1 (centres undefined)
- IC50 (Caspase-3): 19.8 µM (active)
- IC50 [8]: 6.48 µM (active)
- IC50 [9]: 19.7 µM (active)
- IC50 [10]: 36.1 µM (active)

SMILES: O=C1/C(=C/N(C(=O)c2ccco2)c2ccc(Br)cc2)Sc2ccccc21
- IC50 (Caspase-3): 16.2 µM (active)
- IC50 [8]: 13.9 µM (active)
- IC50 [9]: 19 µM (active)
- IC50 [10]: 24.7 µM (active)

SMILES: N=c1c(C(=O)NCc2ccco2)cc2c(=O)n3ccccc3nc2n1Cc1ccc(Cl)cc1
- IC50 [11]: 41.8 µM (inactive)

SMILES: c1ccc(C[n+]2c(-c3ccccc3)cn3c2SCCC3)cc1
- IC50 (Protein Wnt-3a): 7.13 µM (active)

SMILES: CCOc1ccccc1/N=C1\SC(CC(=O)Nc2ccc(OC)cc2OC)C(=O)N1CCC1=CCCCC1 (centres undefined)
- EC50 [12]: 1.98 µM (active)
- EC50 [13]: > 60 µM (not active)
- IC50 [5]: < 0.368 µM (active)
- EC50 [6]: > 53 µM (inactive)
- IC50 [7]: > 20 µM (inactive)

SMILES: C/C(=N\NC(=S)NCCc1ccccc1)c1ccc(O)cc1O
- IC50 [14]: > 66 µM (inactive)
- IC50 [15]: > 66 µM (inactive)
- IC50 [16]: > 122 µM (inactive)

SMILES: C[C@@H]1CN([C@@H](C)CO)C(=O)Cc2cc(NC(=O)Nc3ccc(C(F)(F)F)cc3)ccc2O[C@H]1CN(C)Cc1ccc2c(c1)OCO2
- AC50 (Paired box protein Pax-8): 7.85 µM (active)
- AC50 [17]: 24 µM (active)
- AC50 [18]: 63.7 µM (active)
- AC50 [19]: 41.5 µM (active)

SMILES: O=C1C(=O)N(Cc2ccc(-c3ccc(Cl)nc3)cc2)c2ccc(OC(F)(F)F)cc21
- IC50 [16]: > 122 µM (inactive)

SMILES: COc1ccc(-n2c(SCC(=O)NN=C(S)Nc3ccccc3)nc3ccccc3c2=O)cc1
- IC50 [16]: > 40.6 µM (inactive)
